Source: PubChem BioAssay AID1963852 (Molecular Pharmacology Branch, DTP, NCI, 2024)

Tested on: 282377-053-R-J1-PDC complex spheroid viability
Assay: Anticancer human tumor 282377-053-R-J1-PDC patient-derived colon adenocarcinoma cell line growth inhibition [POLQ]
Conditions: for IC50: curve of first compound; for viability, T/C: stronger effect = lower value
In short: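 Growth inhibition in 3D: complex spheroids (tumor PDC, HUVEC, MSC) treated with POLQ inhibitor combinations; where Cmax unknown, highest tested concentration 10 microM, except SN-38 at 1 microM.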

[1] = second compound 0.0316 µM, first compound 0.00316 µM
[2] = second compound 0.0316 µM, first compound 0.01 µM
[3] = second compound 0.0316 µM, first compound 0.0316 µM
[4] = second compound 0.0316 µM, first compound 0.1 µM
[5] = second compound 0.0316 µM, first compound 0.316 µM
[6] = second compound 0.0316 µM, first compound 1 µM
[7] = second compound 0.1 µM, first compound 0.00316 µM
[8] = second compound 0.1 µM, first compound 0.01 µM
[9] = second compound 0.1 µM, first compound 0.0316 µM
[10] = second compound 0.1 µM, first compound 0.1 µM
[11] = second compound 0.1 µM, first compound 0.316 µM
[12] = second compound 0.1 µM, first compound 1 µM
[13] = second compound 0.316 µM, first compound 0.00316 µM
[14] = second compound 0.316 µM, first compound 0.01 µM
[15] = second compound 0.316 µM, first compound 0.0316 µM
[16] = second compound 0.316 µM, first compound 0.1 µM
[17] = second compound 0.316 µM, first compound 0.316 µM
[18] = second compound 0.316 µM, first compound 1 µM
[19] = second compound 1 µM, first compound 0.00316 µM
[20] = second compound 1 µM, first compound 0.01 µM
[21] = second compound 1 µM, first compound 0.0316 µM
[22] = second compound 1 µM, first compound 0.1 µM
[23] = second compound 1 µM, first compound 0.316 µM
[24] = second compound 1 µM, first compound 1 µM
[25] = second compound 3.16 µM, first compound 0.00316 µM
[26] = second compound 3.16 µM, first compound 0.01 µM
[27] = second compound 3.16 µM, first compound 0.0316 µM
[28] = second compound 3.16 µM, first compound 0.1 µM
[29] = second compound 3.16 µM, first compound 0.316 µM
[30] = second compound 3.16 µM, first compound 1 µM
[31] = second compound 10 µM, first compound 0.00316 µM
[32] = second compound 10 µM, first compound 0.01 µM
[33] = second compound 10 µM, first compound 0.0316 µM
[34] = second compound 10 µM, first compound 0.1 µM
[35] = second compound 10 µM, first compound 0.316 µM
[36] = second compound 10 µM, first compound 1 µM
[37] = second compound 0.0316 µM, first compound 3.16 µM
[38] = second compound 0.0316 µM, first compound 10 µM
[39] = second compound 0.1 µM, first compound 3.16 µM
[40] = second compound 0.1 µM, first compound 10 µM
[41] = second compound 0.316 µM, first compound 3.16 µM
[42] = second compound 0.316 µM, first compound 10 µM
[43] = second compound 1 µM, first compound 3.16 µM
[44] = second compound 1 µM, first compound 10 µM
[45] = second compound 3.16 µM, first compound 3.16 µM
[46] = second compound 3.16 µM, first compound 10 µM
[47] = second compound 10 µM, first compound 3.16 µM
[48] = second compound 10 µM, first compound 10 µM
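Also: spheroids exposed to compounds for seven days.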
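For viability, T/C in this document: 100% = DMSO vehicle control viability.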

For `C=CCn1c(=O)c2cnc(Nc3ccc(N4CCN(C)CC4)cc3)nc2n1-c1cccc(C(C)(C)O)n1` + COC1C(OC(N)=O)C(O)C(Oc2ccc3c(O)c(NC(=O)c4ccc(O)c(CC=C(C)C)c4)c(=O)oc3c2C)OC1(C)C, the IC50 (second compound 0.0316 µM) was > 1000 nM, the IC50 (second compound 0.1 µM) was > 1000 nM and the IC50 (second compound 0.316 µM) was > 1000 nM. For the same molecule, the IC50 (second compound 1 µM) was > 1000 nM, the IC50 (second compound 3.16 µM) was > 1000 nM and the IC50 (second compound 10 µM) was > 1000 nM. The viability, T/C [1] was 85.2%, the viability, T/C [2] was 97.7% and the viability, T/C [3] was 147%. For the same molecule, the viability, T/C [4] was 120%, the viability, T/C [5] was 91.7% and the viability, T/C [6] was 64.7%. For the same molecule, the viability, T/C [7] was 122%, the viability, T/C [8] was 108% and the viability, T/C [9] was 94.4%. For the same molecule, the viability, T/C [10] was 118%, the viability, T/C [11] was 99.1% and the viability, T/C [12] was 89.9%. It also gave a viability, T/C [13] of 113%, a viability, T/C [14] of 109% and a viability, T/C [15] of 134%. It also gave a viability, T/C [16] of 96.3%, a viability, T/C [17] of 98.7% and a viability, T/C [18] of 81.7%. It also gave a viability, T/C [19] of 114%, a viability, T/C [20] of 90.5% and a viability, T/C [21] of 93.1%. It also gave a viability, T/C [22] of 109%, a viability, T/C [23] of 110% and a viability, T/C [24] of 67.8%. The viability, T/C [25] was 118%, the viability, T/C [26] was 120% and the viability, T/C [27] was 78.4%. The viability, T/C [28] was 91.5%, the viability, T/C [29] was 105% and the viability, T/C [30] was 76.4%. It also gave a viability, T/C [31] of 88.5%, a viability, T/C [32] of 91.8% and a viability, T/C [33] of 87.2%. For the same molecule, the viability, T/C [34] was 102%, the viability, T/C [35] was 96.7% and the viability, T/C [36] was 75.5%.

With `CCc1c2c(nc3ccc(O)cc13)-c1cc3c(c(=O)n1C2)COC(=O)[C@]3(O)CC` + COC1C(OC(N)=O)C(O)C(Oc2ccc3c(O)c(NC(=O)c4ccc(O)c(CC=C(C)C)c4)c(=O)oc3c2C)OC1(C)C the IC50 (second compound 0.0316 µM) was 92.1 nM, the IC50 (second compound 0.1 µM) was 115 nM and the IC50 (second compound 0.316 µM) was 114 nM. It also gave an IC50 (second compound 1 µM) of 78.9 nM, an IC50 (second compound 3.16 µM) of 41.2 nM and an IC50 (second compound 10 µM) of 52.1 nM. The viability, T/C [1] was 111%, the viability, T/C [2] was 71.8% and the viability, T/C [3] was 59.8%. The viability, T/C [4] was 54%, the viability, T/C [5] was 30.7% and the viability, T/C [6] was 19.4%. For the same molecule, the viability, T/C [7] was 108%, the viability, T/C [8] was 90.1% and the viability, T/C [9] was 64.6%. It also gave a viability, T/C [10] of 51.8%, a viability, T/C [11] of 37.6% and a viability, T/C [12] of 19.2%. For the same molecule, the viability, T/C [13] was 124%, the viability, T/C [14] was 81.2% and the viability, T/C [15] was 60.7%. The viability, T/C [16] was 51%, the viability, T/C [17] was 37.7% and the viability, T/C [18] was 18.6%. It also gave a viability, T/C [19] of 116%, a viability, T/C [20] of 93.8% and a viability, T/C [21] of 49.3%. The viability, T/C [22] was 59.1%, the viability, T/C [23] was 30.9% and the viability, T/C [24] was 21.6%. It also gave a viability, T/C [25] of 115%, a viability, T/C [26] of 75.6% and a viability, T/C [27] of 46.3%. It also gave a viability, T/C [28] of 47.8%, a viability, T/C [29] of 38.6% and a viability, T/C [30] of 25%. The viability, T/C [31] was 102%, the viability, T/C [32] was 72.6% and the viability, T/C [33] was 56%. For the same molecule, the viability, T/C [34] was 39.2%, the viability, T/C [35] was 41.9% and the viability, T/C [36] was 16.6%.

In the case of `CC1COCCN1c1cc(C2(S(C)(=N)=O)CC2)nc(-c2ccnc3[nH]ccc23)n1` (stereo not drawn) + COC1C(OC(N)=O)C(O)C(Oc2ccc3c(O)c(NC(=O)c4ccc(O)c(CC=C(C)C)c4)c(=O)oc3c2C)OC1(C)C, the IC50 (second compound 0.0316 µM) is reported as > 10000 nM, the IC50 (second compound 0.1 µM) is reported as 5460 nM and the IC50 (second compound 0.316 µM) is reported as 6610 nM. For the same molecule, the IC50 (second compound 1 µM) was 7630 nM, the IC50 (second compound 3.16 µM) was 6860 nM and the IC50 (second compound 10 µM) was 9910 nM. The viability, T/C [3] was 108%, the viability, T/C [4] was 89.1% and the viability, T/C [5] was 110%. The viability, T/C [6] was 76.9%, the viability, T/C [37] was 74.9% and the viability, T/C [38] was 56.7%. For the same molecule, the viability, T/C [9] was 92.4%, the viability, T/C [10] was 104% and the viability, T/C [11] was 88.5%. For the same molecule, the viability, T/C [12] was 72.1%, the viability, T/C [39] was 61.9% and the viability, T/C [40] was 39.6%. For the same molecule, the viability, T/C [15] was 103%, the viability, T/C [16] was 82.1% and the viability, T/C [17] was 83.6%. The viability, T/C [18] was 81%, the viability, T/C [41] was 80.4% and the viability, T/C [42] was 33.9%. It also gave a viability, T/C [21] of 115%, a viability, T/C [22] of 90.2% and a viability, T/C [23] of 91.5%. It also gave a viability, T/C [24] of 81%, a viability, T/C [43] of 79.5% and a viability, T/C [44] of 39.9%. The viability, T/C [27] was 99%, the viability, T/C [28] was 93.3% and the viability, T/C [29] was 85.3%. It also gave a viability, T/C [30] of 107%, a viability, T/C [45] of 59.6% and a viability, T/C [46] of 45.3%. It also gave a viability, T/C [33] of 104%, a viability, T/C [34] of 119% and a viability, T/C [35] of 79.8%. The viability, T/C [36] was 92.3%, the viability, T/C [47] was 66.1% and the viability, T/C [48] was 49.7%.

`COc1ccc([C@@H](O)c2cc(-c3ncnc4cc(N5CCOCC5)ccc34)c(F)cc2Cl)nn1` + Nc1ccc(C#CCN(C(=O)Cc2ncc(C(F)(F)F)cc2C(F)(F)F)c2ccc(F)cc2)nn1 was tested, and the IC50 (second compound 0.0316 µM) was > 10000 nM, the IC50 (second compound 0.1 µM) was > 10000 nM and the IC50 (second compound 0.316 µM) was > 10000 nM. The IC50 (second compound 1 µM) was > 10000 nM, the IC50 (second compound 3.16 µM) was > 10000 nM and the IC50 (second compound 10 µM) was > 10000 nM. It also gave a viability, T/C [3] of 101%, a viability, T/C [4] of 98.1% and a viability, T/C [5] of 102%. For the same molecule, the viability, T/C [6] was 93.8%, the viability, T/C [37] was 88.3% and the viability, T/C [38] was 71.8%. It also gave a viability, T/C [9] of 94.4%, a viability, T/C [10] of 108% and a viability, T/C [11] of 97.3%. The viability, T/C [12] was 100%, the viability, T/C [39] was 85.5% and the viability, T/C [40] was 83.2%. The viability, T/C [15] was 102%, the viability, T/C [16] was 86.2% and the viability, T/C [17] was 111%. The viability, T/C [18] was 89%, the viability, T/C [41] was 106% and the viability, T/C [42] was 86.9%. It also gave a viability, T/C [21] of 106%, a viability, T/C [22] of 88.5% and a viability, T/C [23] of 95.5%. It also gave a viability, T/C [24] of 91.9%, a viability, T/C [43] of 88.6% and a viability, T/C [44] of 84.1%. It also gave a viability, T/C [27] of 109%, a viability, T/C [28] of 105% and a viability, T/C [29] of 92.5%. For the same molecule, the viability, T/C [30] was 100%, the viability, T/C [45] was 91% and the viability, T/C [46] was 85.4%. The viability, T/C [33] was 122%, the viability, T/C [34] was 111% and the viability, T/C [35] was 98.7%. It also gave a viability, T/C [36] of 109%, a viability, T/C [47] of 100% and a viability, T/C [48] of 90.1%.
